The results in this text go back to PubChem BioAssay (NCI).

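Method: 48-hour compound exposure of cells in 96-well plates, five concentrations, linear interpolation of endpoints. TGI marks complete inhibition of growth.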

Some test systems named below: HOP-62 NSCLC; 786-0 renal; LOX IMVI melanoma; MOLT-4 leukemia; HL-60(TB) leukemia; UACC-62 melanoma; HCT-116 colon; A549 NSCLC.
Common to all, as to assay: NCI-60 cell line screen, 48 h

For `CCCCCCCCCC1CC(=O)OC2=C1C(=O)CCC2` (stereo not given), the TGI in the test with HOP-62 NSCLC, with 786-0 renal, in the test on LOX IMVI melanoma, in the test with MOLT-4 leukemia, with HL-60(TB) leukemia and in the test on UACC-62 melanoma was above 100 µM each time. Also, the TGI with HCT-116 colon and in the test on A549 NSCLC was above 100 µM each time.
Take `O=C(NC1CCC[C@H]1OC(=O)c1ccccc1)c1ccccc1` (stereo not given in full): the TGI with 786-0 renal, in the test with MOLT-4 leukemia, in the test with HL-60(TB) leukemia, in the test on UACC-62 melanoma, in the test on HCT-116 colon and with A549 NSCLC was above 100 µM each time.
For `CC1(C)CC(=O)C(CC2C(=O)CCCC2=O)C(=O)C1`, the TGI in the test on HOP-62 NSCLC, in the test on 786-0 renal, in the test with LOX IMVI melanoma, with MOLT-4 leukemia, with HL-60(TB) leukemia and with UACC-62 melanoma was above 100 µM each time. Moreover, the TGI in the test with HCT-116 colon and in the test on A549 NSCLC was above 100 µM each time.
For the compound `NC(=O)NNC/C(Cl)=C(\Cl)C(=O)O`, the TGI in the test on HOP-62 NSCLC, in the test on 786-0 renal, with LOX IMVI melanoma, in the test with MOLT-4 leukemia, in the test with HL-60(TB) leukemia and with UACC-62 melanoma was above 100 µM in each case. The TGI in the test with HCT-116 colon and with A549 NSCLC was above 100 µM throughout.
Consider `COc1ccc(C(C2=C(O)CC(C)OC2=O)C2=C(O)CC(C)OC2=O)cc1` (stereo not given), for which the TGI in the test on HOP-62 NSCLC, in the test with 786-0 renal, with LOX IMVI melanoma, in the test with MOLT-4 leukemia, in the test with UACC-62 melanoma and with HCT-116 colon was above 100 µM each time. Besides, in the test with A549 NSCLC, the TGI was above 100 µM.
Turning to `CC1C(c2ccccc2)N(C)C(c2ccccc2)C(C)C1(O)c1ccccc1` (stereo not given), the TGI in the test with HOP-62 NSCLC, in the test on 786-0 renal, with LOX IMVI melanoma, in the test on MOLT-4 leukemia, in the test with HL-60(TB) leukemia and in the test on UACC-62 melanoma was above 100 µM throughout. Moreover, the TGI in the test with HCT-116 colon and with A549 NSCLC was above 100 µM in each case.
Consider `Cc1cc(-c2ccccc2)nc(Nc2cc3ccccc3[nH]2)n1`, for which the TGI with HOP-62 NSCLC, with 786-0 renal, in the test on LOX IMVI melanoma, with MOLT-4 leukemia, in the test on HL-60(TB) leukemia and in the test with UACC-62 melanoma was above 100 µM in each case. The TGI in the test with HCT-116 colon and in the test with A549 NSCLC was above 100 µM each time.
`CCO/C=C\C12CCCC1NC(c1ccccc1)(c1ccccc1)O2` (stereo not given): the TGI with HOP-62 NSCLC is above 100 µM; in the test with 786-0 renal, above 100 µM; in the test on MOLT-4 leukemia, 46 µM; in the test with HL-60(TB) leukemia, 45.2 µM; with UACC-62 melanoma, 53.4 µM; with HCT-116 colon, above 100 µM. The same compound showed a TGI in the test on A549 NSCLC above 100 µM.
Regarding `COc1cc(/C=C2\[C@@H]3NC(Cc4c(OC)c(C)c(OC)c(OC)c43)C(=O)N2Cc2ccccc2)c(OC)c(C)c1OC`, the TGI in the test on HOP-62 NSCLC was above 100 µM; with 786-0 renal, above 100 µM; with LOX IMVI melanoma, above 100 µM; in the test on MOLT-4 leukemia, 94 µM; with HL-60(TB) leukemia it was 62.8 µM; with UACC-62 melanoma it was above 100 µM. The TGI in the test on HCT-116 colon and in the test with A549 NSCLC was above 100 µM in each case.
Regarding `CCC(O)CCCCCCCCCCCCCCC(=O)O` (stereo not given), the TGI in the test with HOP-62 NSCLC is above 100 µM; with 786-0 renal, above 100 µM; in the test on MOLT-4 leukemia, above 100 µM; in the test with HL-60(TB) leukemia, 80 µM; in the test on UACC-62 melanoma it was above 100 µM; with HCT-116 colon, above 100 µM. Also, the TGI in the test on A549 NSCLC was above 100 µM.
Regarding `C=CCC1(CN(C)C)CC/C(=C\c2ccc3c(c2)OCO3)C1=O` (stereo not given), the TGI is above 100 µM in the test on HOP-62 NSCLC; above 100 µM in the test with 786-0 renal; above 100 µM with LOX IMVI melanoma; 72.8 µM in the test on MOLT-4 leukemia; 15.8 µM in the test with HL-60(TB) leukemia; above 100 µM in the test with UACC-62 melanoma. In addition, the TGI in the test with HCT-116 colon and in the test with A549 NSCLC was above 100 µM throughout.
Consider `CCCCCCCCCCCCCCNCC(OC)OC`, for which the TGI in the test with HOP-62 NSCLC worked out at 31.8 µM; in the test with 786-0 renal it was 31 µM; in the test on LOX IMVI melanoma it was 33.5 µM; in the test with HL-60(TB) leukemia it was 23 µM; with UACC-62 melanoma, 34.4 µM; in the test with HCT-116 colon, 26 µM. Moreover, in the test with A549 NSCLC, the TGI is 35.3 µM.
Turning to `CC1(c2ccc(F)cc2)C2C(=O)NC(=O)C1C(=O)NC2=O` (stereo not given), the TGI with 786-0 renal, in the test with LOX IMVI melanoma, in the test on MOLT-4 leukemia, with HL-60(TB) leukemia, in the test with UACC-62 melanoma and in the test with A549 NSCLC was above 100 µM each time.
As for `OC1OCC(COc2cc(Cl)c(Cl)cc2Cl)OC1O` (stereo not given), the TGI in the test with HOP-62 NSCLC is above 100 µM; with 786-0 renal, above 100 µM; in the test on MOLT-4 leukemia it was above 100 µM; in the test on HL-60(TB) leukemia, 90.9 µM; in the test with UACC-62 melanoma, above 100 µM; in the test with HCT-116 colon it was 42.1 µM. In the test on A549 NSCLC, this compound returned a TGI above 100 µM.
Consider `O=C1CCC2(O)c3ccccc3C2Cc2ccccc21` (stereo not given), for which the TGI in the test with HOP-62 NSCLC, in the test on 786-0 renal, in the test on LOX IMVI melanoma, in the test with MOLT-4 leukemia, in the test on HL-60(TB) leukemia and with UACC-62 melanoma was above 100 µM in each case. The TGI in the test with HCT-116 colon is above 100 µM.
